Experimental data taken from paper PMC6478789, “A chemical toolbox for the study of bromodomains and epigenetic signaling” (Nature Communications, 2019).

What was measured:
Experiment in all cases: Methyl transferase scintillation proximity assay
Type in all cases: biochemical
Settings in all cases: average of two measurements; for inhibition at 10 µM: read-out: MTases Inhibition (%)
[1] = target: T1, NSD1 (Homo sapiens, UniProt Q96L73)
T1 construct: purchased DiscoverX BROMOscan (bromodomains); SGC in-house methyltransferase panel
T1 sequence (Q96L73 whole entry): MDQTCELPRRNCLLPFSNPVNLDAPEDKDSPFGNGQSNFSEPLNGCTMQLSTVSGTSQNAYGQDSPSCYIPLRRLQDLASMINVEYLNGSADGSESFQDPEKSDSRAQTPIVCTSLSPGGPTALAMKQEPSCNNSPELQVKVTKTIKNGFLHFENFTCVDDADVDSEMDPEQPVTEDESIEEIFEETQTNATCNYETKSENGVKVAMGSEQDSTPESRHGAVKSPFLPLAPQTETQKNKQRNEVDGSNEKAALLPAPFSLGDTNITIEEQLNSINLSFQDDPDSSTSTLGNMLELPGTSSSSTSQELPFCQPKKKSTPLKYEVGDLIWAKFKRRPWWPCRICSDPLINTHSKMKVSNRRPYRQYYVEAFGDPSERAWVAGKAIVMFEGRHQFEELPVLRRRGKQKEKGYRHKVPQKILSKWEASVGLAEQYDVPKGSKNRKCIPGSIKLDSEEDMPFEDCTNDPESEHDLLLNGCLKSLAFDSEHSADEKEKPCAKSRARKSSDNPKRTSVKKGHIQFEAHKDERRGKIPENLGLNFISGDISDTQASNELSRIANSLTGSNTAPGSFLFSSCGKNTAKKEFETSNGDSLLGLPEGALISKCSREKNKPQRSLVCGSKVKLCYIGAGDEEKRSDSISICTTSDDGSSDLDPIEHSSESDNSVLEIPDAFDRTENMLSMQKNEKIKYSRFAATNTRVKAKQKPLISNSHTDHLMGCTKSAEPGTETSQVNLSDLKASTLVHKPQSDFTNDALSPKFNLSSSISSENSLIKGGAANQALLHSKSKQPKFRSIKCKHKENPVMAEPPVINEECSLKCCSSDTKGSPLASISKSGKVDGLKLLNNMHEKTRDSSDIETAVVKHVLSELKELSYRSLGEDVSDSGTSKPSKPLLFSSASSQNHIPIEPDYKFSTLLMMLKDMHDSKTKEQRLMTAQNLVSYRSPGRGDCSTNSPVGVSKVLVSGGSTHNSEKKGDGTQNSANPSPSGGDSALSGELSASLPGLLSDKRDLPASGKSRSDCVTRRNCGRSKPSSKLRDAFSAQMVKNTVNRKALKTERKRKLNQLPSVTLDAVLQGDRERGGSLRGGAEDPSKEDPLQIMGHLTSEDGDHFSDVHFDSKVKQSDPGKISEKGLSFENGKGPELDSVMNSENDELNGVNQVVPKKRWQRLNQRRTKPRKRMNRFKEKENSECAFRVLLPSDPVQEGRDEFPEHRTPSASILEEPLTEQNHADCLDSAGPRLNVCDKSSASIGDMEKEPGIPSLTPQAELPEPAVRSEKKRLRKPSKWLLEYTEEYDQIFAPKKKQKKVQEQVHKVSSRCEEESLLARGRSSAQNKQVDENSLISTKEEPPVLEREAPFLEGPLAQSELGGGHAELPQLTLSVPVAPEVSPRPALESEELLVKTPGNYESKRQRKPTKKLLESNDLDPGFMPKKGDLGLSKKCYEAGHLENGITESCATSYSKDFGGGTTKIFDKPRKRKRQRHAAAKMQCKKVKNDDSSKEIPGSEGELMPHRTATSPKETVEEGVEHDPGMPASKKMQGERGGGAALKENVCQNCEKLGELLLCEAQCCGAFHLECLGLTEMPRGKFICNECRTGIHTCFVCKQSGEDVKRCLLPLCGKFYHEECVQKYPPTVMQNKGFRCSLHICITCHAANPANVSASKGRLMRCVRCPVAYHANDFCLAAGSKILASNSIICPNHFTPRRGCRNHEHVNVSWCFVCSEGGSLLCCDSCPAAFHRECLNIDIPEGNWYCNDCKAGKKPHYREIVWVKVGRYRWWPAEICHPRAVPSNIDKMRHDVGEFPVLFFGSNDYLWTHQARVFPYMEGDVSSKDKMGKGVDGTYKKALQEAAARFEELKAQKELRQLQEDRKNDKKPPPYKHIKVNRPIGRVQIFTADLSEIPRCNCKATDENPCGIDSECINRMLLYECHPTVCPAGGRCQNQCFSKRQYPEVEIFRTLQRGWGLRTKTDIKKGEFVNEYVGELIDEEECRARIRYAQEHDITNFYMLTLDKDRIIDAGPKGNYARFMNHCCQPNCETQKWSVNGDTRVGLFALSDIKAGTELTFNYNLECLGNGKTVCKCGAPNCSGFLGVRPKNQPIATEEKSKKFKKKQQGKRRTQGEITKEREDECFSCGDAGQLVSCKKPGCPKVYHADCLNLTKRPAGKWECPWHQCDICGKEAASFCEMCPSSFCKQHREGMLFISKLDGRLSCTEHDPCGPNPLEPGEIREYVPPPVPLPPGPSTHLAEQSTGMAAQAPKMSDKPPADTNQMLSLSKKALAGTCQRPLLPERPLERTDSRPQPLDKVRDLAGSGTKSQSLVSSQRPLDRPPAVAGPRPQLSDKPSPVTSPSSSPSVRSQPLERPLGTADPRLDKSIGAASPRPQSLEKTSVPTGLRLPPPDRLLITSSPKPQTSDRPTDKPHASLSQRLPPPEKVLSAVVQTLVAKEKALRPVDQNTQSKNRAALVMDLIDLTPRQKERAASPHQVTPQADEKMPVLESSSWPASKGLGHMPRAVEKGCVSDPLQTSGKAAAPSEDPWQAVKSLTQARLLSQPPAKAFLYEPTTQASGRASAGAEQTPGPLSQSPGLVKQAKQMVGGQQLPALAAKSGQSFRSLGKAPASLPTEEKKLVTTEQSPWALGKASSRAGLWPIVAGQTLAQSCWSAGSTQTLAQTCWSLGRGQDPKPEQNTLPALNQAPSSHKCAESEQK
Summary of the method: (§1)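 Scintillation proximity format using ^3H-SAM as methyl donor; substrate biotinylated. Levels of both near apparent Km. Activity expressed relative to compound-free (100%) and enzyme-free (0%) counts.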

[2] = target: T2, SUV420H1 (Homo sapiens, UniProt Q4FZB7)
T2 construct: purchased DiscoverX BROMOscan (bromodomains); SGC in-house methyltransferase panel
T2 sequence (Q4FZB7 whole entry): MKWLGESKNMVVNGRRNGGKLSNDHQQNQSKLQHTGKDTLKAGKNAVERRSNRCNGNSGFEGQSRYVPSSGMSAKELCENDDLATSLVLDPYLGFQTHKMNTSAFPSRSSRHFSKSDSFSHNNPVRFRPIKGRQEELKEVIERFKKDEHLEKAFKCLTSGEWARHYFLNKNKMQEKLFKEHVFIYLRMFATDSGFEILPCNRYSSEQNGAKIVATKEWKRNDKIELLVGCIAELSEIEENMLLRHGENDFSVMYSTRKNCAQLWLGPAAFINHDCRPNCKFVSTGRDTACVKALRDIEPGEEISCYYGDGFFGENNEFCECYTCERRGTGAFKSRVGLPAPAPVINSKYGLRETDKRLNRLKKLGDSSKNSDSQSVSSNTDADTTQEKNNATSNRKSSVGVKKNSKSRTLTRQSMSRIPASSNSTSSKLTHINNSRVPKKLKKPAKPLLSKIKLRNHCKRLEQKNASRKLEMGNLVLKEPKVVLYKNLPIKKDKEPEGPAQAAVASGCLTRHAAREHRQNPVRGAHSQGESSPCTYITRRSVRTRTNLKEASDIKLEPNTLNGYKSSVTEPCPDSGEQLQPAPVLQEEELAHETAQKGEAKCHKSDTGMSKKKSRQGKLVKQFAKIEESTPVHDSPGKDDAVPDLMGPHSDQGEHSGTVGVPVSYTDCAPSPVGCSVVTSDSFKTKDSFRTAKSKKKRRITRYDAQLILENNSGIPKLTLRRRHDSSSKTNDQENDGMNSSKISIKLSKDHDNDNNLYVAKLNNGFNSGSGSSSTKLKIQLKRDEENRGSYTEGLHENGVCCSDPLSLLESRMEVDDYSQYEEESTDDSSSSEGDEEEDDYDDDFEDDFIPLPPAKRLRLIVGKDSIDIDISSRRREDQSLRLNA
Summary of the method: as §1

[3] = target: T3, PRMT5 (Homo sapiens, UniProt O14744)
T3 construct: purchased DiscoverX BROMOscan (bromodomains); SGC in-house methyltransferase panel
T3 sequence (O14744 whole entry): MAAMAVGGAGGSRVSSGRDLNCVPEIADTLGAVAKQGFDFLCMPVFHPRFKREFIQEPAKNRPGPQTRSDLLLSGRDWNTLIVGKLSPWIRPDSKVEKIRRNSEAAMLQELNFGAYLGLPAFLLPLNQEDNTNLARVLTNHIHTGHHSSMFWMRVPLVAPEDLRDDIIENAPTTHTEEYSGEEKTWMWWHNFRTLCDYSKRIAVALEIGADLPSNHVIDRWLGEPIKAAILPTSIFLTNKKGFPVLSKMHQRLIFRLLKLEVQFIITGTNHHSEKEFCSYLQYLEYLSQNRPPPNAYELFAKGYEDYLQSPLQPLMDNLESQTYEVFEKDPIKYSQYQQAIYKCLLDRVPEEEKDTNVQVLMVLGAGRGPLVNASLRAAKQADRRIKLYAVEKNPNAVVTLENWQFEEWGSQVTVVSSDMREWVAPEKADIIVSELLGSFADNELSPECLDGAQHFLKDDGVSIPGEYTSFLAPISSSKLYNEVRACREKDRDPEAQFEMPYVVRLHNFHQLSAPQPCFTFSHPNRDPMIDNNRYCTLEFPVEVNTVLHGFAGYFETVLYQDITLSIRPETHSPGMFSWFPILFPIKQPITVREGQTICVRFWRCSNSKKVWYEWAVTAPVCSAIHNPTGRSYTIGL
T3 sequence (Q9BQA1 whole entry partner): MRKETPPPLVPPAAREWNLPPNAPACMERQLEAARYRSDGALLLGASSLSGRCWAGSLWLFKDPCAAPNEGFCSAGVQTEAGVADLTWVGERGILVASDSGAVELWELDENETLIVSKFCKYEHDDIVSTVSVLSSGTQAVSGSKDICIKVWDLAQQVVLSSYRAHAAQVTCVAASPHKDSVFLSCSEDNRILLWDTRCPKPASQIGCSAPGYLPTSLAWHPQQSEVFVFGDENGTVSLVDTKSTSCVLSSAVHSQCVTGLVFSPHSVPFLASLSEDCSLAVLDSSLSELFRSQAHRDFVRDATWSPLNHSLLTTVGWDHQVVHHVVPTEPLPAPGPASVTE
Summary of the method: as §1

[4] = target: T4, SUV39H1 (Homo sapiens, UniProt O43463)
T4 construct: purchased DiscoverX BROMOscan (bromodomains); SGC in-house methyltransferase panel
T4 sequence (O43463 1-412): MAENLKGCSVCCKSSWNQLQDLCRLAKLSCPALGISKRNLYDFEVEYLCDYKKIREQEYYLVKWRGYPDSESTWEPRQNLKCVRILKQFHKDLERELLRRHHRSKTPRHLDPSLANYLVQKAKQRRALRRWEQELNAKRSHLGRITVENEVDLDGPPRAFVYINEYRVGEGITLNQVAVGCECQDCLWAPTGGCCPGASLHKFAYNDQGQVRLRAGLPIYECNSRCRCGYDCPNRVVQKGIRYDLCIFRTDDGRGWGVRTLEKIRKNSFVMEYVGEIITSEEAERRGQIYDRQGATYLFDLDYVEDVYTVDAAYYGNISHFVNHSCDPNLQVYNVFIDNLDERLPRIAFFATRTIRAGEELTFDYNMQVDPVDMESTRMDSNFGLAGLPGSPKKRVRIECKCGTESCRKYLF
Summary of the method: as §1

[5] = target: T5, PRMT9 (Homo sapiens, UniProt Q6P2P2)
T5 construct: purchased DiscoverX BROMOscan (bromodomains); SGC in-house methyltransferase panel
T5 sequence (Q6P2P2 1-845): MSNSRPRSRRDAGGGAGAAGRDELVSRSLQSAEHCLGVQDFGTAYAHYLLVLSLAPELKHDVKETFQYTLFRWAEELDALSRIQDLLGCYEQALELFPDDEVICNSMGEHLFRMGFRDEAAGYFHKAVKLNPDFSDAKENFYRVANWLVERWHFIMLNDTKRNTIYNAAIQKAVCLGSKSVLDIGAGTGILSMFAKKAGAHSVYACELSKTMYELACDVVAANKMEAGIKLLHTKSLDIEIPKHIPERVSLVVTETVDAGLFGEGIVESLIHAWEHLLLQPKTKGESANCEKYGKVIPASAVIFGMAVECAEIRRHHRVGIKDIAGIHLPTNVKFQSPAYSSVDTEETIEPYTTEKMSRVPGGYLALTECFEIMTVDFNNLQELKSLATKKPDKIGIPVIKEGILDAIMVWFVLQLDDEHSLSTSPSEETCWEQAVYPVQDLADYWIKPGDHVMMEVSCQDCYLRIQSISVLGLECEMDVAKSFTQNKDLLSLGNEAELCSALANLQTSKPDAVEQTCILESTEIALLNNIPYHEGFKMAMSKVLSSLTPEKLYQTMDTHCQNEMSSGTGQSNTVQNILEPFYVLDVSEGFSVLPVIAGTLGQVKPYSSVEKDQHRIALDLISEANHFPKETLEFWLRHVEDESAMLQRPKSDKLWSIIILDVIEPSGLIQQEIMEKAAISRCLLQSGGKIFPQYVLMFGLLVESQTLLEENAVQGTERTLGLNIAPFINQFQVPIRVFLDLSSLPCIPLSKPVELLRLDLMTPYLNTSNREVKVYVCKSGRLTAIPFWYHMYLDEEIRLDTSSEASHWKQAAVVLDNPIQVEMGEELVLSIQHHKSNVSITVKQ
Summary of the method: as §1

[6] = target: T6, MLL3 (pentameric) (Homo sapiens, UniProt Q8NEZ4)
T6 construct: purchased DiscoverX BROMOscan (bromodomains); SGC in-house methyltransferase panel
Summary of the method: as §1

[7] = target: T7, ASH1L (Homo sapiens, UniProt Q9NR48)
T7 construct: purchased DiscoverX BROMOscan (bromodomains); SGC in-house methyltransferase panel
Summary of the method: as §1

[8] = target: T8, PRMT6 (Homo sapiens, UniProt Q96LA8)
T8 construct: purchased DiscoverX BROMOscan (bromodomains); SGC in-house methyltransferase panel
Summary of the method: as §1

[9] = target: T9, SMYD3 (Homo sapiens, UniProt Q9H7B4)
T9 construct: purchased DiscoverX BROMOscan (bromodomains); SGC in-house methyltransferase panel
T9 sequence (Q9H7B4 1-428): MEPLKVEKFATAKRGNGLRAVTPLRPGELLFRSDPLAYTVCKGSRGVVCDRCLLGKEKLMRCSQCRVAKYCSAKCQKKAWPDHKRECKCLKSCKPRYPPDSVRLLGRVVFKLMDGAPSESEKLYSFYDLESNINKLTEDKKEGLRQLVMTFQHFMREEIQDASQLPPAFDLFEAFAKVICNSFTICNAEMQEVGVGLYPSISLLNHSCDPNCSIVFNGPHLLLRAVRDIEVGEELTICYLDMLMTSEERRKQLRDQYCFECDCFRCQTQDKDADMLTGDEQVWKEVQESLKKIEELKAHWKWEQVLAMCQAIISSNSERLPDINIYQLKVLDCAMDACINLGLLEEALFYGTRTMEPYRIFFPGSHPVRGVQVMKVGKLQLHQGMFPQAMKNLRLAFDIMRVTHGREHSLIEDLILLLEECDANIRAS
Summary of the method: as §1

[10] = target: T10, DNMT3A/3L (Homo sapiens, UniProt Q9Y6K1)
T10 construct: purchased DiscoverX BROMOscan (bromodomains); SGC in-house methyltransferase panel
Summary of the method: as §1

[11] = target: T11, DOT1L (Homo sapiens, UniProt Q8TEK3)
T11 construct: purchased DiscoverX BROMOscan (bromodomains); SGC in-house methyltransferase panel
Summary of the method: as §1

[12] = target: T12, SMYD2 (Homo sapiens, UniProt Q9NRG4)
T12 construct: purchased DiscoverX BROMOscan (bromodomains); SGC in-house methyltransferase panel
Summary of the method: as §1

[13] = target: T13, PRC2-EZH1 (Homo sapiens, UniProt Q92800)
T13 construct: purchased DiscoverX BROMOscan (bromodomains); SGC in-house methyltransferase panel
Summary of the method: as §1

[14] = target: T14, PRMT8 (Homo sapiens, UniProt Q9NR22)
T14 construct: purchased DiscoverX BROMOscan (bromodomains); SGC in-house methyltransferase panel
T14 sequence (Q9NR22 whole entry): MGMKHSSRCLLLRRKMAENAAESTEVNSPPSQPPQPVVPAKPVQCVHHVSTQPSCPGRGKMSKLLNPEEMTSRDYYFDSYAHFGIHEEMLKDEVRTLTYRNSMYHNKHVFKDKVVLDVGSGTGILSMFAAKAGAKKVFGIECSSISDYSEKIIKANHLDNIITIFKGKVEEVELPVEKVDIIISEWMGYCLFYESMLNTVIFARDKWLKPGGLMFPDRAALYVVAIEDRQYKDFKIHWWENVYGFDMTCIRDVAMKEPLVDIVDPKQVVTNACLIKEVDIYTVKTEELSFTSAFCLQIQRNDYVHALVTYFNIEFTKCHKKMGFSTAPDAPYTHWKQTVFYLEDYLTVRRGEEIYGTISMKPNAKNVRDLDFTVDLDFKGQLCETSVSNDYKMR
Summary of the method: as §1

Row | inhibition at 10 µM [1] | inhibition at 10 µM [2] | inhibition at 10 µM [3] | inhibition at 10 µM [4] | inhibition at 10 µM [5] | inhibition at 10 µM [6] | inhibition at 10 µM [7] | inhibition at 10 µM [8] | inhibition at 10 µM [9] | inhibition at 10 µM [10] | inhibition at 10 µM [11] | inhibition at 10 µM [12] | inhibition at 10 µM [13] | inhibition at 10 µM [14] | SMILES | other results
1 | 11% | -5% | 4% | 12% | 3% | 7% | -6% | 4% | 7% | -1% | 3% | 8% | 3% | 3% | Cc1c(NC(=O)c2cc(C(N)=O)nc3cc(F)ccc23)c(C(F)(F)F)nn1Cc1ccc(C(C)(C)C)cc1 [BAY-588] | 
2 | 2% | 5% | 4% | 5% | 15% | 0% | 3% | 13% | 6% | 21% | 3% | 19% | 19% | 4% | COc1cc(Cl)c(C(=O)N[C@@H](CN[C@H]2CC[C@@H](N)CC2)Cc2ccc(C#N)cc2)cc1-c1ccc(CN[C@H](C)c2ccc(C)cc2)o1 [BAY-850] | 
3 | 2% | -1% | -1% | 16% | 12% | 0% | 4% | -3% | 3% | 6% | -6% | -10% | -4% | 9% | Cc1c(NC(=O)c2cc(C(N)=O)nc3cc(F)ccc23)c(C(F)(F)F)nn1Cc1ccc(C#N)cc1 [BAY-876] | 
4 | 4% | 8% | 8% | -3% | 8% | 2% | 13% | 6% | 1% | 3% | -2% | 2% | -1% | 15% | CN1C[C@H](Nc2cnn(C)c(=O)c2Br)C[C@H](c2ccccc2)C1 [GSK4027] | 
5 |  |  |  |  |  |  |  |  |  |  |  |  |  |  | COc1ccccc1C(=O)Nc1cc2c(cc1N1CCNC[C@H]1C)n(C)c(=O)n2C [GSK6853] | MTases Inhibition (%) ([1]; 10µM): 1%; MTases Inhibition (%) ([2]; 10µM): 5%; MTases Inhibition (%) ([3]; 10µM): 3%; MTases Inhibition (%) ([4]; 10µM): -3%; MTases Inhibition (%) ([5]; 10µM): 12%; MTases Inhibition (%) ([6]; 10µM): 2%; MTases Inhibition (%) ([7]; 10µM): 4%; MTases Inhibition (%) ([8]; 10µM): 5%; MTases Inhibition (%) ([9]; 10µM): 9%; MTases Inhibition (%) ([10]; 10µM): 13%; MTases Inhibition (%) ([11]; 10µM): 10%; MTases Inhibition (%) ([12]; 10µM): -3%; MTases Inhibition (%) ([13]; 10µM): 1%; MTases Inhibition (%) ([14]; 10µM): 3%
6 | 19% | -3% | -2% | -2% | 3% | 0% | 2% | 0% | 8% | 8% | 5% | -2% | 1% | 5% | CO[C@H]1CNC[C@@H](OCC2CCC(F)(F)CC2)[C@@H]1Nc1ncc(-c2cncc(C)c2)c2cc(C)c(=O)[nH]c12 [GSK8814] | 
7 | -6% | 4% | -3% | -2% | 13% | 1% | -3% | 5% | 10% | 2% | 1% | -10% | 5% | 5% | Cc1nnc2c3ccccc3c(N[C@@H](C)[C@H](c3ccccc3)N(C)C)nn12 [L-Moses] | 
8 | 1% | 3% | -12% | -1% | 7% | -3% | -4% | 6% | 7% | 8% | 6% | -2% | 6% | 3% | CN(C)CCCOc1ccc(-c2cc(NCCCn3cccn3)nc(S(C)(=O)=O)n2)cc1 [TP-238] | 
